Results: patent publication US12157885B2, “Methods of screening using barcoded libraries” (President and Fellows of Harvard College, priority 2016, dated 2024)

Test system: library of barcoded yeast strains expressing toxic aggregation prone proteins, non-aggregation toxic proteins or benign control proteins
Assay: Barcoded mixed pool growth competition of a yeast library under inducing conditions (galactose) with or without a small molecule, with barcodes quantified by next-generation sequencing
Format: cell-based
Settings: for rescue of growth of strains expressing toxic aggregation prone proteins (barcode representation relative to no drug condition): difference >3 standard deviations vs no drug highlighted
Procedure: Several experiments were conducted in which all members of the library were mixed at equal amounts and the library was grown under non-inducing conditions (glucose) or in the presence of galactose (inducing condition) with or without a small molecule of interest. After overnight outgrowth, genomic DNA was extracted from each of the experimental conditions and barcodes were quantified.
A library of barcoded yeast and their associated genes of interest were subjected to growth under inducing conditions in the presence or absence of small molecules. In FIG. 5A, Lovastatin at 2 ug/ml was added to the outgrowth media. In FIG. 5B, Celestrol at 1 ug/ml was added to the outgrowth media. Growth in the presence of drug was normalized to the without drug condition and plotted relative to the no drug condition. […] “416” and “426” refers to the plasmid background used to express each of the genes tested.
For growth competition experiments, yeast strains each with a unique DNA barcode along with containing a plasmid encoding a control or toxic protein of interest were first grown overnight to saturation in SC-URA+glucose. The various barcoded lines were then mixed in defined ratios and passaged at a 1:1000 dilution into fresh SC-URA+glucose or SC-URA+galactose media. For experiments involving small molecules, yeast were diluted into SC-URA+galactose media containing a given small molecule of interest and allowed to grow for 36 hours before genomic DNA was extracted from the population of cells.
Yeast lysis was performed as previously described. See Lõoke, M., Kristjuhan, K. & Kristjuhan, A. Extraction of genomic DNA from yeasts for PCR-based applications. BioTechniques 50, 325-328 (2011). Briefly, 300-900 ul of overnight culture was spun down and resuspended in 300 ul of 200 mM LiAc, 1% SDS solution. Cells were then vortexed several times and incubated at 70° C. for 10-15 minutes. 900 ul of >95% ethanol was then added to the samples and they were inverted several times along with vortexing to mix the solution well. The samples were then spun at 15,000 g for 3 minutes and the supernatant was discarded. Pellets were washed 1× with 70% ethanol, spun at 15,000 g for 3 minutes and the supernatant was again removed. The pellet was then allowed to air dry for 5-10 minutes before adding in 100 ul of 10 mM Tris pH 8.5 and pipetting up and down to break up the pellet. Samples were then placed in a heating block set to 37° C. for 10 minutes, spun again at 15,000 g for 3 minutes and then the supernatant was collected and used in downstream DNA analysis.
Genomic DNA was extracted and barcoded using one of four internally barcoded forward primers, […] NNNN CACAG […]; […] NNNN GTGTT […]; […] NNNN TCTTG […]; […] NNNN AGCTC […]; in combination with the reverse primer, […]aacgccgccatccagtttaaacgag. Following PCR, the amplicons were purified and normalized using SequalPrep Normalization Plate (96) kit (Thermo Fisher). A second round of PCR was next performed using the Illumina Truseq adapters in order to allow individual samples to be identified during subsequent data analysis. The reads were aligned to a list of the 96 possible barcodes (see Ho, C. H. et al. A molecular barcoded yeast ORF library enables mode-of-action analysis of bioactive compounds. Nat. Biotechnol. 27, 369-377 (2009) using BWA. The depth of coverage for each barcode was calculated for each of the samples using a custom script and normalized to the total number of reads per sample.

CC[C@H](C)C(=O)O[C@H]1C[C@@H](C)C=C2C=C[C@H](C)[C@H](CC[C@@H]3C[C@@H](O)CC(=O)O3)[C@H]21 [Lovastatin]
rescue of growth of strains expressing toxic aggregation prone proteins (barcode representation relative to no drug condition) (Lovastatin at 2 ug/ml in outgrowth media, FIG. 5A): showed an ability to rescue the growth of some of the toxic aggregation prone proteins | change in growth of control strains expressing benign proteins (eYFP, mCherry) (Lovastatin at 2 ug/ml, FIG. 5A): nor did control strains expressing benign proteins such as eYFP and mCherry exhibit a significant change in their growth | rescue of strains expressing proteins that cause toxicity in yeast outside of protein aggregation (Lovastatin at 2 ug/ml, FIG. 5A): none of the proteins that cause toxicity in yeast through alternative methods outside of protein aggregation showed significant rescue

CC1=C(O)C(=O)C=C2C1=CC=C1[C@@]2(C)CC[C@@]2(C)[C@@H]3C[C@](C)(C(=O)O)CC[C@]3(C)CC[C@]12C [Celestrol]
rescue of growth of strains expressing toxic aggregation prone proteins (barcode representation relative to no drug condition) (Celestrol at 1 ug/ml in outgrowth media, FIG. 5B): showed an ability to rescue the growth of some of the toxic aggregation prone proteins | change in growth of control strains expressing benign proteins (eYFP, mCherry) (Celestrol at 1 ug/ml, FIG. 5B): nor did control strains expressing benign proteins such as eYFP and mCherry exhibit a significant change in their growth | rescue of strains expressing proteins that cause toxicity in yeast outside of protein aggregation (Celestrol at 1 ug/ml, FIG. 5B): none of the proteins that cause toxicity in yeast through alternative methods outside of protein aggregation showed significant rescue
